Measured values from patent publication US11692008B2, “Preparation and uses of reactive oxygen species scavenger derivatives” (XWPHARMA LTD., priority 2017, dated 2023).
Where two headings read alike, the source gives them in different places.

Legend:
[1] = test system: HT-1080 cells; assay: Ferroptosis cell viability assay (Erastin-induced, CellTiter-Glo); type: cell-based; details: read-out: EC50, inhibition for ferroptosis in HT-1080 cell
Experimental: Cell Lines and Media: HT-1080 (fibrosarcoma) cells were obtained from American Type Culture Collection. Cells were grown in EMEM media, 10% Heat-Inactivated FBS, and penicillin-streptomycin mix (Invitrogen). Cells were maintained at 37° C. and 5% CO2 in a tissue culture incubator.
Cell Viability Assay. Seed 10,000 cell/well of HT-1080 cells with 195 μL growth media in black and clear bottom 96-well plates (Cat #Corning3904) and allow cells to adhere overnight. The next day, dilute test compound by 2-fold dilution into 12 points with medium containing 400 μM Erastin. Transfer 5 μL of compounds solution into growth medium in triplicated wells. 30 hours later, add Cell Titer-Glo® Luminescent cell viability assay reagent (Cat #, Promega G8081) to measure HT-1080 cell viability according to the manufacture protocol. Briefly, aspirate 100 μL medium, and add 50 μL CellTiter-Glo® Luminescent reagent to each well and incubated for 30 minutes at room temperature to stabilize the Luminescent signal. Seal the plates and centrifuged for 1 minute at 1,000 rpm to remove bubbles. Shake the plates for 1 minute on an orbital shaker. Read the plate to detect Luminescent signal with EnSpire Multimode Plate Reader (PerkinElmer). The remaining activity % is used to evaluate Erastin induced ferroptosis in HT-1080 cells and expressed as the following formula: % Remaining Activity=100×[(Sample−Backgroundavg)/(Vehicle−Backgroundavg)]
Sample: Readout from the test compound
Vehicle: Readout from the vehicle sample
Background: Readout from the Erastin only treatment
Dose response curve is graphed by using the non-linear regression analysis (formula equation 201) in XLFit (Excel add-in software) for the average % remaining activity from triplicates, and the EC50 values is then calculated. In this anti-ferroptosis assay, ferrostatin-1, and XJB-5-131 are included as reference. The acceptance criteria were set based on historical result, mean±2.58*SD in logarithmic scale, meanwhile Z′>0.5.

[2] = test system: 3T3-L1 cells; assay: Apoptosis assay (Caspase-Glo 3/7, Actinomycin D induced); type: cell-based; details: 100 nM Actinomycin D, read-out: EC50, inhibition for apoptosis in 3T3-L1 cell induced by Actinomycin D
Experimental: Cell Lines and Media. 3T3-L1 cells were obtained from American Type Culture Collection. Cells were grown in DMEM completed media, 10% FBS, and penicillin-streptomycin mix (Invitrogen). Cells were maintained at 37° C. and 5% CO2 in a tissue culture incubator.
Apoptosis Assay. […] We used this assay to screen our compounds for apoptosis inhibition. Briefly, 40 μL of 3000 3T3-L1 cells were seeded per well in 384 well plates, Cells were allowed to adhere overnight. In the next day, prepare the Actinomycin D as the apoptosis inducing agent into 100 μM DMSO stock. Prepare the test compounds into 10 mM DMSO stock. Serial dilute the compound into 10 points by 3-fold dilution with DMSO. Pre-treat the 3T3-L1 cells with test compound by transfer 40 nL of stock of serial concentration in triplicate wells using acoustic fluid transfer, incubate for 2 hours. Then transfer 40 nL of 100 μM of Actinomycin D (final concentration is 100 nM) into designated wells using acoustic fluid transfer. Incubate the assay plates at 37° C., 5% CO2, 95% humidity incubator for 48 hours. For caspase assay, add 20 μL/well of Caspase-Glo® 3/7 reagent (Promega) into test wells. Incubate for 30 minutes at room temperature to stabilize the luminescence signal. Read the plate with EnSpire Multimode Plate Reader (PerkinElmer). Calculate the EC50 value using formula equation 201: y=(A+((B−A)/(1+((x/C)^D)))) from the XLFit (Excel add-in software), where • A: Average mean of vehicle samples • B: Average mean of cells treated with 100 nM AcD • C: EC50 • D: HillSlope Z′ factor was used to describe the screening assay performance. The Z′ factor value was >0.5 in all the test plates which indicated the assay was qualified and the IC50 value was reliable for all tested compounds.

| SMILES | EC50 ([1]; 30 hours) [nM] | EC50 ([1]; Homo sapiens, HT-1080, 30 h) [nM] | further results |
| --- | --- | --- | --- |
| CC1=C(C)C(=O)C(CCCOC(=O)NCCCC[C@H](NC(=O)[C@@H]2CCCN2C(=O)[C@H](/C=C/[C@H](CC(C)C)NC(=O)OC(C)(C)C)Cc2ccccc2)C(=O)NC(C)C)=CC1=O [II] | 33 | – | – |
| COC1=C(OC)C(=O)C(CCCCCCCCCCOC(=O)NCCCC[C@H](NC(=O)[C@@H]2CCCN2C(=O)[C@H](/C=C/[C@H](CC(C)C)NC(=O)OC(C)(C)C)Cc2ccccc2)C(=O)NC(C)C)=C(C)C1=O [III, tert-butyl N-[(4S,5E,7S)-7-benzyl-8-[(2S)-2-{[(1S)-5-[({[10-(4,5-dimethoxy-2-methyl-3,6-dioxocyclohexa-1,4-dien-1-yl)decyl]oxy}carbonyl)amino]-1-[(propan-2-yl)carbamoyl]pentyl]carbamoyl}pyrrolidin-1-yl]-2-methyl-8-oxooct-5-en-4-yl]carbamate] | – | 34.6 | – |
| CC1=C(C)C(=O)C(CCC(=O)NCCCC[C@H](NC(=O)[C@@H]2CCCN2C(=O)[C@H](/C=C/[C@H](CC(C)C)NC(=O)OC(C)(C)C)Cc2ccccc2)C(=O)NC(C)C)=CC1=O [IV, tert-Butyl ((4S,7S,E)-7-benzyl-8-((S)-2-(((S)-6-(3-(4,5-dimethyl-3,6-dioxocyclohexa-1,4-dien-1-yl)propanamido)-1-(isopropylamino)-1-oxohexan-2-yl)carbamoyl)pyrrolidin-1-yl)-2-methyl-8-oxooct-5-en-4-yl) carbamate] | 24.4 | – | EC50 ([2]; 48 hours): 702 nM |
| CC1=C(C)C(=O)C(CCCOc2ccc(C[C@H](NC(=O)[C@@H]3CCCN3C(=O)[C@H](/C=C/[C@H](CC(C)C)NC(=O)OC(C)(C)C)Cc3ccccc3)C(=O)NC(C)C)cc2)=C(C)C1=O [X, tert-Butyl ((4S,7S,E)-7-benzyl-8-((S)-2-(((S)-1-(isopropylamino)-1-oxo-3-(4-(3-(2,4,5-trimethyl-3,6-dioxocyclohexa-1,4-dien-1-yl)propoxy)phenyl)propan-2-yl)carbamoyl)pyrrolidin-1-yl)-2-methyl-8-oxooct-5-en-4-yl)carbamate] | – | 56.9 | – |
| CC1=C(C)C(=O)C(CCCOC(=O)NCCCC[C@H](NC(=O)[C@@H]2CCCN2C(=O)[C@H](/C=C/[C@H](CC(C)C)NC(=O)OC(C)(C)C)Cc2ccccc2)C(=O)NC(C)C)=CC1=O [V, tert-butyl N-[(4S,5E,7S)-7-benzyl-8-[(2S)-2-{[(1S)-5-({[3-(4,5-dimethyl-3,6-dioxocyclohexa-1,4-dien-1-yl)propoxy]carbonyl}amino)-1-[(propan-2-yl)carbamoyl]pentyl]carbamoyl}pyrrolidin-1-yl]-2-methyl-8-oxooct-5-en-4-yl]carbamate] | – | 196 | EC50 ([2]; Mus musculus, 3T3-L1, 48 h): 2740 nM |
| CC1=C(C)C(=O)C(CCCOC(=O)NCCCC[C@H](NC(=O)[C@@H]2CCCN2C(=O)[C@H](/C=C/[C@H](CC(C)C)NC(=O)OCC2CC2)Cc2ccccc2)C(=O)NC(C)C)=C(C)C1=O [IX, Cyclopropylmethyl N-[(4S,5E,7S)-7-benzyl-2-methyl-8-oxo-8-[(2S)-2-{[(1S)-1-[(propan-2-yl)carbamoyl]-5-({[3-(2,4,5-trimethyl-3,6-dioxocyclohexa-1,4-dien-1-yl)propoxy]carbonyl}amino)pentyl]carbamoyl}pyrrolidin-1-yl]oct-5-en-4-yl]carbamate] | – | 49.3 | – |
| CC1=C(C)C(=O)C(CCCC[C@H](NC(=O)[C@@H]2CCCN2C(=O)[C@H](/C=C/[C@H](CC(C)C)NC(=O)OC(C)(C)C)Cc2ccccc2)C(=O)NC(C)C)=C(C)C1=O [VI] | 39.1 | – | EC50 ([2]; 48 hours): 7320 nM |
| COc1c(C)c(C)c(OC)c(CCCOC(=O)NCCC[C@H](NC(=O)[C@@H](NC(=O)[C@@H]2CCCN2C(=O)[C@H](/C=C/[C@H](CC(C)C)NC(=O)OC(C)(C)C)Cc2ccccc2)C(C)C)C(=O)NC(C)C)c1C [VIII, tert-butyl N-[(4S,5E,7S)-7-benzyl-8-[(2S)-2-{[(1S)-1-{[(1S)-4-({[3-(2,5-dimethoxy-3,4,6-trimethylphenyl)propoxy]carbonyl}amino)-1-[(propan-2-yl)carbamoyl]butyl]carbamoyl}-2-methylpropyl]carbamoyl}pyrrolidin-1-yl]-2-methyl-8-oxooct-5-en-4-yl]carbamate] | – | > 6000 | – |
| CCOC(=O)N[C@H](/C=C/[C@H](Cc1ccccc1)C(=O)N1CCC[C@H]1C(=O)N[C@@H](CCCCC1=C(C)C(=O)C(C)=C(C)C1=O)C(=O)NC(C)C)CC(C)C [VII, ethyl ((4S,7S,E)-7-benzyl-8-((S)-2-(((S)-1-(isopropylamino)-1-oxo-6-(2,4,5-trimethyl-3,6-dioxocyclohexa-1,4-dien-1-yl)hexan-2-yl)carbamoyl)pyrrolidin1-yl)-2-methyl-8-oxooct-5-en-4-yl)carbamate] | – | 80.5 | – |
| CC1=C(C)C(=O)C(CCCOC(=O)NCCC[C@H](NC(=O)[C@@H]2CCCN2C(=O)[C@H](/C=C/[C@H](CC(C)C)NC(=O)OC(C)(C)C)Cc2ccccc2)C(=O)NC2CC2)=C(C)C1=O [XII, 3-(2,4,5-trimethyl-3,6-dioxocyclohexa-1,4-dien-1-yl)propyl N-[(4S)-4-{[(2S)-1-[(2S,3E,5S)-2-benzyl-5-{[(tert-butoxy)carbonyl]amino}-7-methyloct-3-enoyl]pyrrolidin-2-yl]formamido}-4-(cyclopropylcarbamoyl)butyl] carbamate] | – | 149 | – |
| CC1=C(C)C(=O)C(CCCOC(=O)NCCC[C@H](NC(=O)[C@@H](NC(=O)[C@@H]2CCCN2C(=O)[C@H](/C=C/[C@H](CC(C)C)NC(=O)OC(C)(C)C)Cc2ccccc2)C(C)C)C(=O)NC(C)C)=C(C)C1=O [XI, tert-butyl N-[(4S,5E,7S)-7-benzyl-2-methyl-8-[(2S)-2-{[(1S)-2-methyl-1-{[[(1S)-1-[(propan-2-yl)carbamoyl]-4-({3-(2,4,5-trimethyl-3,6-dioxocyclohexa-1,4-dien-1-yl)propoxy]carbonyl}amino)butyl]carbamoyl}propyl]carbamoyl}pyrrolidin-1-yl]-8-oxooct-5-en-4-yl]carbamate] | – | 47 | – |
| CC1=C(C)C(=O)C(CCC(=O)NCCCC[C@H](NC(=O)[C@@H]2CCCN2C(=O)[C@H](/C=C/[C@H](CC(C)C)NC(=O)OC(C)(C)C)Cc2ccccc2)C(=O)NC(C)C)=CC1=O [I, tert-Butyl ((4S,7S,E)-7-benzyl-8-((S)-2-(((S)-6-(3-(4,5-dimethyl-3,6-dioxocyclohexa-1,4-dien-1-yl)propanamido)-1-(isopropylamino)-1-oxohexan-2-yl)carbamoyl)pyrrolidin-1-yl)-2-methyl-8-oxooct-5-en-4-yl)carbamate] | 119 | – | EC50 ([2]; Mus musculus, 3T3-L1, 48 h): 1150 nM |
